The text below walks through data of publication PMC11239005, “Preclinical studies of RA475, a guanidine-substituted spirocyclic candidate RPN13/ADRM1 inhibitor for treatment of ovarian cancer” (PLOS ONE, 2024).

For one data set, the system named is PEA1 cells. The data set can be described thus: MTT cytotoxicity assay, PEA1. Conditions: Homo sapiens, PEA1, 72 h. Format: cell-based, human. Here is the method: (§1) All cell lines were obtained from the American Type Culture Collection (ATCC) and cultured in the specified medium supplemented with 10% fetal bovine serum, 100 IU/mL penicillin, and 100 μg/mL streptomycin at 37°C in a humidified 5% CO2/95% air incubator. Synthesis of new compounds is described in S1 File, and >95% purity of RA475, Up284 and its analogs were confirmed by NMR and MS. To assess drug cytotoxicity, cells were seeded at 2,500 cells/well (10,000 cells/well for MM lines) in 100 μL medium in 96-well plate as triplicates and after 24 h treated with compounds for a further 72 h. To assess cytotoxicity, the cells were incubated for 2 h at 37°C according to the manufacturer’s protocol with the Thiazolyl Blue Tetrazolium Bromide (20 μL/well of 5 mg/mL stock solution in water) (Sigma, M5655) and A570 measured using a Benchmark Plus microplate spectrophotometer (BIO-RAD). IC50 was estimated using Graphpad Prism 7 software.
(§2) Modifications of Up284 were sought to improve its drug-like properties without significant compromise of its activity in vivo, and several new compounds were synthesized (S1 File). Based on our prior studies of its pharmacophore, the central ring nitrogen was the most logical for addition of charged moieties, including RA475 and RA484. We also examined a change to either 3,4 spiro rings (RA477, RA479), or addition of 3-Fluoro substitutions (RA482) (S1 File). Our focus is developing iRPN13 to treat ovarian cancer resistant to standard of care drug regimens.
A wash-out experiment was performed to assess reversibility of the toxicity. PEA1 cells were treated with RA475 for 1 h before the medium was replaced with fresh culture medium, and the cells were then allowed to grow for another 71 hours (PEA1-WO). In parallel, PEA1 cells were incubated with RA475 continuously for 72 h. […] Possible reasons include slow uptake of RA475, reversible binding and neutralization by antioxidants in the medium.
To study the effect of RA475 in combination with approved therapeutics (DNA damaging agents or radiation) an MTT assay was performed using various concentrations of both drugs. Briefly PEA1 and OVCAR3 cells were each treated with drug combination (RA475 plus cisplatin) for 72 h in a checker board analysis and cell viability was measured using MTT assay. The data were analyzed and plotted using the Synergy Finder web application.
(Tetrazolium assays rely on reduction of a dye to a coloured formazan, in cell work by metabolically active cells.)

For another data set, the system named is PEA2. Briefly: MTT cytotoxicity assay, PEA2. The class given is cell-based. Conditions: Homo sapiens; PEA2, 72 h, MTT; read-out: IC50. The protocol: as §1, §2
For data set [1] the following is noted: cited from earlier work.
Another data set deals with MDA-MB-468 cells. Briefly: Surface Annexin V display by flow cytometry, MDA-MB-468. The class given is cell-based. Conditions: MDA-MB-468, 12 h; RA475 1 or 2 μM, ixazomib 1 μM. Here is the method:
The percentage of cells initiating apoptosis was assessed with the annexin V FITC assay kit. The cells (2 × 10^5 cells/well) were treated with the described compounds at selected concentrations for 12 h or 16 h, as indicated. The cells were then collected, washed with PBS, resuspended in 100 μL of annexin V-FITC and 7-AAD dual-stain solution (3 μL Annexin V and 3 μL 7AAD, Catalog Number; 559763-BD bioscience), and incubated 20 min in the dark. The samples were then analyzed via flow cytometry using FlowJo V10 software. All experiments were repeated three times.
Supplementary file pone.0305710.s006.tif: S6 Fig RA475 induced apoptosis in a triple negative breast cancer cell line. […] (TIF)
(Flow cytometry measures light scatter and fluorescence of single cells or particles in a stream.)

The test system of data set [2] is high molecular weight polyubiquitinated proteins in OVCAR3 cells. The data set can be described thus: Anti-ubiquitin immunoblot, OVCAR3. The class given is cell-based, human. Conditions: Up284 0.5 μM, bortezomib 0.25 μM, ixazomib 0.25 μM, RA475 0.5 or 1 μM. From the text: (§3) Cell lysate prepared in MPER (Pierce) from each sample was normalized by total protein concentration using the bicinchoninic acid assay and bovine serum albumin standards. Normalized samples were subjected to SDS-PAGE, transferred to PVDF membranes and analyzed by Western blot using antibodies specific to ubiquitin (P4D1, sc-8017, Santa Cruz), PARP (#9542, […]), actin (#66009, Protein Tech Group), Tubulin(#66031, Protein Tech Group), ADRM1/RPN13 (D9Z1U, #12019, Cell Signaling), USP14 (Cell Signal, # 8159), Annexin V (#559763, BD Pharmingen), and for secondary antibodies we utilized either horseradish peroxidase (HRP)-linked anti-mouse IgG or anti-rabbit IgG (GE Healthcare UK Ltd), HRP-linked streptavidin (N100, Thermo Fisher) at the recommended dilution (1:5000).
(§4) Accumulation of high molecular weight polyubiquitinated proteins (polyUb) is a classical phenomenon of proteasome function inhibition due to the stabilization of its substrate.
(§5) Fig 3 Impact of RA475 on proteasome function. […] Actin was used as loading control. […] C) 4T1 and HCC1806 cells stably expressing 4UbFL were treated with compounds at indicated doses for 4 h and imaged by IVIS200 after the addition of luciferin substrate (50 μL, 7mg/mL in PBS). D) Sub-confluent cultures of ES2 cells stably expressing 4UbFL were seeded at 10,000 cells/well in 96-well microtiter plates. At 18 h post transfection, cells were treated with compounds or vehicle (DMSO) at the doses indicated. After a 4 h incubation, the cells were lysed and the luciferase activity in each cell lysate was determined with a luciferase assay kit (Promega) according to the manufacturer’s instructions. Bioluminescence was measured by using a luminometer (Glomax Multidetection system, Promega) E) A patch was shaved of hair on one leg of CD-1 mice, and 10 μg 4UbFL plasmid in 20 μL of PBS was injected into the quadriceps femoralis muscle followed immediately by injection of the 2 Needle Array to 5 mm depth encompassing the injection site and square wave electroporation (ElectroSquarePorator 833, BTX-2 Needle array 5mm gap, Harvard apparatus) delivered as eight pulses at 106V for 20 ms with 200 ms intervals. One day post electroporation, mice were anesthetized with isoflurane, injected IP with luciferin (0.3 mg in 100 μL water) and optical imaging was performed to determine basal level luciferase expression. Images were acquired for 10 min with a Xenogen IVIS 200 (Caliper, Hopkinton, MA). Equally sized areas were analyzed using Living Image 2.20 software. Mice were imaged weekly during treatment. […]
On the technique in general: Immunoblotting shows a protein as a band on a membrane.

Data set [3] concerns high molecular weight polyubiquitinated proteins in SKOV3 cells. Briefly: Anti-ubiquitin immunoblot, SKOV3. The class given is cell-based. Conditions: Up284 and RA475 0.5 and 1 μM, RA190 1 μM.
From the text: as §3, §4
as §5, with “D) Sub-confluent cultures of ES2 cells stably expressing 4UbFL were seeded at 10,000 cells/well in 96-well microtiter plates. At 18 h post transfection, cells were treated with compounds or vehicle (DMSO) at the doses indicated.” left out, “One day post electroporation, mice were anesthetized with isoflurane, injected IP with luciferin (0.3 mg in 100 μL water) and optical imaging was performed to determine basal level luciferase expression. Images were acquired for 10 min with a Xenogen IVIS 200 (Caliper, Hopkinton, MA).” left out, “software.” for “software. Mice were imaged weekly during treatment.”

The conditions of data set [4]: human and mouse microsomes; cited from earlier work.
Data set [5] is described as follows: LogD measurement, shake-flask octanol/PBS pH 7.4. The class given is physicochemical. Conditions: octanol/PBS pH 7.4, single injections 1-3. The protocol: Incubations were carried out in Eppendorf-type polypropylene microtubes in triplicates. A 2.5 μL aliquot of 20 mM DMSO stock of a test compound was added into the previously mutually saturated mixture containing 500 μL of PBS (pH 7.4) and 500 μL of octanol. The solution was allowed to mix in a rotator for 1 hour at 30 rpm. Phase separation was assured by centrifugation for 2 min at 6000 rpm. The octanol phase was diluted 100-fold with 40% acetonitrile, and the aqueous phase (PBS buffer) was diluted 10-fold. The samples (both phases) were analyzed using an HPLC system coupled with a tandem mass spectrometer. […] Calculations of the partition ratios were carried out using the equation below. D=do.So/dp.Sp where:
So–peak area of the analyte in octanol phase
SP–peak area of the analyte in PBS buffer
do–dilution coefficient for octanol phase

Data set [6] has as its system spontaneous genetically-engineered peritoneal tumor (shp53, AKT, c-Myc). Briefly: Spontaneous GEMM of primary peritoneal/ovarian cancer. Conditions: C57BL/6; RA475 40 mg/kg IP every 3 days (12 doses); cisplatin 5 mg/Kg weekly (5 doses alone, 3 in combination). Format: in vivo, mouse. Here is the method:
To induce IP tumor formation in immunocompetent mice, oncogenes (shp53, AKT, c-Myc), luciferase and the Sleeping Beauty (SB) transposase (10 μg/plasmid) were diluted in 500 μL of PBS and injected IP into female C57BL/6 mice. The mice were anesthetized by intramuscular injection of 50–100μL of a cocktail of ketamine 16 mg/mL / 3 mg/mL xylazine. The plasmid-injected mice were electroporated (EP) by the BTX ECM 830 square wave EP generator (BTX) (5 pulses, 200 V for 100 ms/pulse, 100 ms intervals between each pulse) with the caliper electrode (BTX) held across the waist of mouse. The mice were followed by IVIS imaging weekly for tracking tumor growth. The mice were sacrificed when the bioluminescence signal reached 10^9 photons/sec/cm^2/sr, or had enlarged abdomens due to the production of ascites, or had health conditions and/or criteria under which early euthanasia was required by the protocol. To track peritoneal tumor growth, bioluminescence imaging was performed by the IVIS Spectrum2000 (PerkinElmer) as the plasmid expressing SB transposase also produces luciferase. Briefly, the mice were injected IP with D-luciferin (GoldBio). After 10 min, the mice were anesthetized with isoflurane, and imaged by the IVIS Spectrum under the auto exposure mode. Bioluminescence in the peritoneal region was quantified as total photon counts/sec/cm^2/sr using Living Image 3.0 Software (Perkin Elmer).
GEMM better mimic the spontaneous development of cancers in an immune competent host than transplantable tumor lines. Female C57BL/6 mice were co-injected IP with sleeping beauty vector and plasmids expressing carrying shp53, AKT, c-Myc and firefly luciferase genes, followed by electroporation (EP) to deliver these plasmid DNA into the peritoneal cavity cells wherein they integrate randomly into their genome. After 7 days mice were imaged by IVIS200 for bioluminescence and randomized. Four groups (n = 8) were treated IP with vehicle or RA475 (40mg/kg, IP, every 3 days) or Cisplatin (5 mg/Kg, once a week) or the combination of RA475 (40mg/Kg, IP, every 3 days) plus Cisplatin (5 mg/Kg, once a week). […] While cisplatin reduced tumor growth, it led to severe toxicity including weight loss >20% that was not evident with RA475 alone.
Fig 7 Administration of RA475, cisplatin or the combination to mice bearing spontaneous, genetically-engineered model ovarian/peritoneal cancer. Female C57BL/6 mice were co-injected IP with sleeping beauty vector and plasmids expressing carrying shp53, AKT, c-Myc and firefly luciferase genes, followed by electroporation (EP) to deliver these plasmid DNA into the peritoneal cavity cells wherein they integrate randomly into their genome. After 7 days mice were imaged by Xenogen IVIS200 for bioluminescence and randomized. […]

“And” between values parts separate entries of the source, which are not always exact repeats. Equal entries are not always repeated. Structures can show the parent of a compound that is named as a salt.

What is called IC50 is the point on the concentration scale where inhibition reaches its midpoint.

Regarding `N#Cc1ccc(/C=C2/C(=O)/C(=C/c3ccc(C#N)cc3)C23CCN(C(=N)N)C3)cc1` [RA477, 1,3-bis((E)-4-cyanobenzylidene)-2-oxo-6-azaspiro[3.4]octane-6-carboximidamide dihydrochloride], the IC50 in the data set on PEA1 cells came out at 0.331 µM; with PEA2, 0.312 µM. Consider `CC(C)C[C@H](NC(=O)[C@H](CCc1ccccc1)NC(=O)CN1CCOCC1)C(=O)N[C@@H](Cc1ccccc1)C(=O)N[C@@H](CC(C)C)C(=O)[C@@]1(C)CO1` [Carfilzomib, carfilzomib], for which, in data set [1], the “access to the brain” value is listed as “mostly excluded from the brain”. With `N#Cc1ccc(/C=C2/C(=O)/C(=C/c3ccc(C#N)c(F)c3)C23CCN(C(=N)N)C3)cc1F` [RA479, 1,3-bis((E)-4-cyano-3-fluorobenzylidene)-2-oxo-6-azaspiro[3.4]octane-6-carboximidamide dihydrochloride], the IC50 in the data set on PEA1 cells came out at 0.35 µM; in the data set on PEA2, 0.32 µM. For the compound `CC(C)C[C@H](NC(=O)CNC(=O)c1cc(Cl)ccc1Cl)B(O)O` [ixazomib], the “apoptosis by surface Annexin V display” value with MDA-MB-468 cells is reported as “initiated apoptosis”. Further, the “forms of polyUb induced” value in [2] was “only induced the smaller poly Ub forms, typically <250kDa”. The “access to the brain” value in data set [1] is “mostly excluded from the brain”.

For `N#Cc1ccc(/C=C2/C(=O)/C(=C/c3ccc(C#N)c(F)c3)C23CCN(C(=N)N)CC3)cc1F` [RA482, 1,3-bis((E)-4-cyano-3-fluorobenzylidene)-2-oxo-7-azaspiro[3.5]nonane-7-carboximidamide dihydrochloride], the IC50 stood at 0.396 µM in the data set on PEA1 cells and 0.41 µM with PEA2.

Turning to `N#Cc1ccc(/C=C2/C(=O)/C(=C/c3ccc(C#N)cc3)C23CCN(C(=N)N2CCOCC2)CC3)cc1` [RA484, 4,4'-((1E,1'E)-(7-(imino(morpholino)methyl)-2-oxo-7-azaspiro[3.5]nonane-1,3-diylidene)bis(methaneylylidene))dibenzonitrile], the IC50 stood at 0.479 µM with PEA1 cells and 0.522 µM in the data set with PEA2. Consider `Cl.N[C@@H](Cc1ccccc1)C(=O)N1C/C(=C/c2ccc(Cl)c(Cl)c2)C(=O)/C(=C\c2ccc(Cl)c(Cl)c2)C1` [RA190], for which the “accumulation of high molecular weight polyubiquitinated proteins” value in [3] is “robust accumulation of polyUb”. Moreover, the “breakdown in microsomes compared with RA475” value in data set [4] is on record as “more rapidly broken down”. On to `COC(=O)Nc1nc2ccc(C(=O)c3ccccc3)cc2[nH]1` [Mebendazole], for which the D in data set [5] is 8.61E+02 and 8.97E+02 and 8.85E+02. As for `N.N.[Cl][Pt][Cl]` [cisplatin, reference compound], the “tumor burden by bioluminescence” value in [6] is listed as “significantly better delayed, but did not reduce, tumor burden”.
